US9844226B2 (AJINOMOTO CO., INC., priority 2009, dated 2017)
“Also recorded” adds a separate entry of the source.

Legend:
panelists [1] = assay: Quantitative sensory evaluation test of kokumi-imparting activity; type: in vivo, human
Protocol: This quantitative sensory evaluation test was carried out as follows: The strength of the kokumi-imparting activity was measured for the cases where the test compound was mixed at concentrations of 0.001 to 0.5 g/dL with distilled water containing sodium glutamate (0.05 g/dL), inosine monophosphate (0.05 g/dL), and sodium chloride (0.5 g/dL). After the test compound was dissolved, samples more acidic than a control with no added test compound were adjusted, before further use, with NaOH to have a pH in a range of ±0.2 from the pH of the control with no added test compound. The sensory evaluation scores were as follows: control: 0 points; strong: 3 points; very strong: 5 points. The sensory evaluation was carried out using n (the number of panelists)=4. Moreover, to clarify the scale, the initial taste and the middle/after taste of γ-[…] at 0.001 g/dL were both set as 3.0 points. The term “middle/after taste” refers to the taste perceived during the period which includes the middle taste and the after taste. For the scoring, a linear scale method was employed. In this method, the score was marked as a position on a straight line showing positions for scores ranging from -5 0 5.

[2] = Stability (statement only); type: physicochemical; settings: compared with γ-Glu-Cys
panelists [3] = assay: Sensory evaluation of salty taste in low salt chicken stock, use in combination with an organic acid; type: in vivo, human; settings: γ-Glu-Abu 0.0040 g/dL in low salt chicken stock (salt 0.48 g/dL); control = 3, 1.25x salt = 4, 1.5x salt = 5; n=6
Protocol: The sensory evaluation tests were carried out as follows. […] A test compound in an appropriate amount was dissolved in the solution, and the salty taste strength was measured. No pH adjustment is necessary, such as the lowering of the pH, because there is no difference in pH between the solution after dissolving each test compound and the control without any added compound. […] To clarify the scale, the sensory evaluation scores were set as follows: the salty taste of the control: 3 points; the salty taste of a soup with increased salt concentration by 1.25 times as compared to that of control: 4 points; and the salty taste of a soup with increased salt concentration by 1.5 times as compared to that of the control: 5 points. The sensory evaluation was carried out using a panel of n (the number of panelists)=6. For the scoring a linear scale method was used. In this method, the score was marked as a position on a straight line showing positions for scores ranging from 1 3 5. The panelists used in this test were persons who had been engaged in the development of seasonings for foods for at least one year or longer in total, and who were capable of determining that the difference in potency between γ-[…] and γ-[…] each added to an umami and salty taste solution was around 10 times, while confirming the ability of these persons at regular intervals.

panelists [4] = assay: Strength of kokumi-imparting activity by Point of Subjective Equality (PSE), limit-determining technique; type: in vivo, human; settings: from PSE
Protocol: The intensity of the kokumi-imparting activity of γ-Glu-Abu was determined by Point of Subjective Equality (PSE) according to the limit-determining technique (“Statistical Sensory Examination techniques”, written by SATO Shin, published by Japan Federation of Science and Technology). The sensory evaluation was carried out as follows: Distilled water containing sodium glutamate (0.05 g/dL), inosine monophosphate (0.05 g/dL) and sodium chloride (0.5 g/dL) was used as the solution for the sensory evaluation. […] To determine the concentration of γ-Glu-Val at which the strength of taste is the same as that of a solution obtained by causing the solution for the sensory evaluation to contain 0.005 g/dL of γ-[…] solutions were prepared with a concentration that varied on a 50% logarithmic scale by using a solution obtained by causing the solution for the sensory evaluation, to contain 0.01 g/dL of γ-Glu-Val as a standard. The concentrations of γ-Glu-Val was set to 7 values ranging from 0.0030 to 0.0337 g/dL. After the test substance was dissolved, samples more acidic than the control with no added test substance were adjusted, before further use, with NaOH to have a pH in a range of ±0.2 as compared to the pH of the control with no added test substance. The solutions were presented to eighteen panelists in ascending order of the γ-Glu-Val concentration. The evaluation was carried out until each panelist perceived that the strength was higher than that of the 0.005 g/dL γ-Glu-Abu solution. After a certain interval, the solutions were next presented to the eighteen panelists in descending order of the γ-Glu-Val concentration. The evaluation was carried out until each panelist perceived that the strength was lower than that of the 0.005 g/dL γ-Glu-Abu solution. In this sensory evaluation, the panelists were experienced in the development of food products. When the lower and upper threshold values were the same, there was no γ-Glu-Val concentration at which the difference between the perception that the strength was lower, and the perception that the strength was higher, was uncertain. […] Each confidence threshold (average) is an average of the lower thresholds and the upper thresholds. The point of subjective equality (PSE) of γ-Glu-Val to 50 ppm (0.0050 g/dL) of γ-Glu-Abu is expressed as follows: (the sum of the confidence threshold of the lower thresholds and that of the upper threshold value)/2.

[5] = 0.005 g/dL in water with MSG 0.05, IMP 0.05, NaCl 0.5 g/dL, scale -5~0~5, n=4

With `CC[C@H](NC(=O)CC[C@H](N)C(=O)O)C(=O)O` the “Strength of Kokumi Impartment, Initial Taste” value (panelists [1]; [5]) was 3.8 points, the “Strength of Kokumi Impartment, Middle/After Taste” value (panelists [1]; [5]) was 3.2 points and the “Kokumi-imparting potency (in words)” value (panelists [1]; in vivo) was “extremely high potency; also recorded: excellent kokumi-imparting activity”. The “Stability (in words)” value [2] was “excellent in stability”, the “Str. of Salty Taste (score)” value (panelists [3]) was 3.56 score and the “Strength of γ-Glu-Abu relative to γ-Glu-Val” value (panelists [4]) was “approximately 2.4 times”.
